Experimental data taken from patent US7879863B2, “Aniline derivatives” (Ajinomoto Co., Inc., priority 2004, dated 2011).
Marks after values point to notes of the source that are not given here.

How the values were obtained:
[1] = target: T1, human activated tissue kallikrein (Homo sapiens, UniProt P06870); assay: Measurement of tissue kallikrein inhibitory activity; assay type: biochemical; conditions: activated tissue kallikrein activity (initial rate) inhibited by 50%; substrate D-valyl-L-leucyl-L-arginyl-p-nitroanilide; 37° C.
T1 construct: 6xHis (C); made in house; host or cells: baculovirus / Sf21 insect cells
Description: Measurement of tissue kallikrein inhibitory activity
Expression and purification of human activated tissue kallikrein was performed according to the method of Angermann (A. Angermann et al., Eur. J. Biochem., 206, 225-233 (1992)). That is, a gene was prepared by adding 6 residues of histidine to the C-terminal side of human pancreas kallikrein gene (D. Fukuchima et al, Biochemistry, 24, 8037-8043 (1985)), and tissue prokallikrein was expressed by a system using a baculovirus-insect cell (Sf21). Purified human tissue kallikrein was obtained from the culture supernatant by purification using a nickel chelate column (Ni-NTA, QIAGEN K. K.), digestion with TPCK trypsin and further nickel chelate column. To a solution (100 μL) of the human activated tissue kallikrein adjusted to 0.0625 μg/mL with an assay buffer (100 mM tris-hydrochloride buffer (pH 8.4) containing 0.2M NaCl, 0.02% Tween 20, and 0.1% PEG 6000) was added an assay buffer (containing 2% DMSO) solution (50 μL) of the test compound adjusted to the objective concentration, and the mixture was incubated at 37° C. for 10 minutes (min=minutes). Then, a 4 mM solution (50 μL) of D-valyl-L-leucyl-L-arginyl-p-nitroanilide hydrochloride (BACHEM AG) adjusted with the assay buffer was added, the absorbance was measured and the reaction rate was determined. As a control, a DMSO solution (50 μL) was added instead of the solution of the test compound. Absorbance was measured at a wavelength of 405 nm at 60 second intervals for 90 min using a Benchmark Plus Microplate Reader (BIO RAD). The negative logarithm value (abbreviated as pIC50) of the test compound concentration when the activated tissue kallikrein activity (initial rate) was inhibited by 50% without addition of the test compound was used as an index of the activated tissue kallikrein inhibitory activity.

[2] = system: acetic acid writhing model; assay: Efficacy evaluation in acetic acid writhing model; assay type: in vivo, male ICR mice; conditions: mice, writhing number 5 to 20 min after 0.9% acetic acid i.p., mean ± standard error
Description: Efficacy evaluation in acetic acid writhing model
The acetic acid writhing model was subjected to evaluation according to the method of European Journal of Pharmacology, 352, 47-52 (1998). To be specific, a solution of the test compound adjusted to the objective concentration with a 0.5 (w/v) % tragacanth gum solution was orally administered to male ICR mice (CHARLES RIVER LABORATORIES JAPAN, INC.) at 5 mL/kg, and a 0.9% acetic acid solution adjusted with a physiological saline was intraperitoneally administered 60 min later at 5 mL/kg. The number of writhing for 15 min from 5 min to 20 min after administration of a 0.9% acetic acid solution was counted and taken as the writhing number of the test compound. A mouse, to which a 0.5 (w/v) % tragacanth gum (TG) solution was orally administered at 5 ml/kg instead of the test compound, was used as a control. The suppression rate (%) was calculated by subtracting the relative value of each mouse from the relative value when the average value of the control group is 100%. As a Reference Example, the value obtained by oral administration of a positive control drug, indomethacin, instead of the test compound is shown. […] For testing the significant difference, Dunnett's t-test was used, and statistic significance as shown by P<0.05 and P<0.01 relative to the TG control group is shown in the Table with * and **, respectively.

[3] = system: DSS-induced enteritis model; assay: Efficacy evaluation in DSS-induced enteritis model; assay type: in vivo, female CBA mice; conditions: 10 mg/kg oral, mice, 5% DSS; relative to non-treatment group = 100%; mean ± standard error
From the text: Efficacy evaluation in DSS-induced enteritis model
The dextran sodium sulfate (DSS)-induced enteritis model was subjected to evaluation by a partly-modified methods of Gastroenterology, 98, 694-702 (1990) and Cytokine, 11, 890-896 (1998). A 5 (w/v) % DSS (manufactured by Sigma, MW 5,000) solution was freely taken by female CBA mice (CHARLES RIVER LABORATORIES JAPAN, INC.) for a given period to induce enteritis. A solution of the test compound adjusted to the objective concentration with a 0.5 (w/v) % tragacanth gum (TG) solution was orally administered at 5 mL/kg. Upon autopsy, the length, weight and the like of the large intestine were evaluated and used as an index of the onset of inflammatory enteritis. As a control, a mouse, to which a 0.5 (w/v) % TG solution was orally administered at 5 mL/kg instead of the test compound, was used. The length and weight of the large intestine are expressed as the relative value when the average value of the non-treatment group is 100%. As a Reference Example, the values obtained by oral administration of a positive control drug, salazosulfapyridine, instead of the test compound are shown. […] For testing the significant difference, Dunnett's t-test was used, and statistic significance as shown by P<0.05 and P<0.01 relative to the TG control group is shown in the Table with * and **, respectively.

T1 sequence (P06870 25-262): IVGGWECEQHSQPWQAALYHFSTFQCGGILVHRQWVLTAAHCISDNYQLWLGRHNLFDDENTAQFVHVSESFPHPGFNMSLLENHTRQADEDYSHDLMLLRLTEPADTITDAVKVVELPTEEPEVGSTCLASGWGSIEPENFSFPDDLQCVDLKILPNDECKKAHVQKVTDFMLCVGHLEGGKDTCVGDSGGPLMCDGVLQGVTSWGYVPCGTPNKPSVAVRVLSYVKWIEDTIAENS

CC(C)[C@H](CNC(=O)Cc1ccccn1)Nc1ccc(C(F)(F)F)cc1 [Compound A-8]
IC50 [1]: 91.2 nM
suppression rate (%) ([2]; 3 mg/kg oral): 33.7 ± 10.1* %
suppression rate (%) ([2]; 10 mg/kg oral): 52.7 ± 7.5** %
suppression rate (%) ([2]; 30 mg/kg oral): 63.5 ± 6.6** %
large intestine length (%) [3]: 80.4 ± 1.8** %
large intestine weight (%) [3]: 130.5 ± 5.28** %
